We go through 13 compounds from patent US20260022142A1, “MACROCYCLIC IMMUNOMODULATORS” (Bristol-Myers Squibb Company, priority 2022, published 2026).

The structures appear in SMILES notation. Bridge positions count the residues as written; N and C are the ends. Square brackets hold non-standard residues; d marks the D form. Peptide text beside a SMILES is read from it. * marks the point of attachment. ξ: configuration not given here. Bip = N[C@@H](Cc1ccc(-c2ccccc2)cc1)C(=O)O; Tyr(3-F) = N[C@@H](Cc1ccc(O)c(F)c1)C(=O)O; Tyr(3-Me) = Cc1cc(C[C@H](N)C(=O)O)ccc1O; Phe(3-Me) = Cc1cccc(C[C@H](N)C(=O)O)c1; Cha = N[C@@H](CC1CCCCC1)C(=O)O; hSer = N[C@@H](CCO)C(=O)O; Carboxymethyl = O=C(O)C*; Orn = NCCC[C@H](N)C(=O)O; Aun = NCCCCCCCCCCC(=O)O; Dab = NCC[C@H](N)C(=O)O; Dap = NC[C@H](N)C(=O)O; ξS = NC(CO)C(=O)O

T1 sequence (Q15116 25-288): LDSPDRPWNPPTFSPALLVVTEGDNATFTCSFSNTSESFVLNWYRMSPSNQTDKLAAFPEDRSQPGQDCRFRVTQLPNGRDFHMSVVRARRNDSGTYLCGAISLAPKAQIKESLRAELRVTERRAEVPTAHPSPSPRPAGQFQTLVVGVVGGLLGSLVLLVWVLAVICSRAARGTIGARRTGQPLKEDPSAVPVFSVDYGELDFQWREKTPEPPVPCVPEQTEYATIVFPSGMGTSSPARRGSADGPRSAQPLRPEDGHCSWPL

This test addresses T1, PD-1/PD-L1 interaction (PE-labeled human PD-L1-Ig binding to Jurkat cell line over-expressing human PD-1) (Homo sapiens, UniProt Q15116).
T1 construct: expressed in transfected cells; host or cells: Jurkat
The experiment in a line: Jurkat-PD-1 Cell Binding High-Content Screening Assay (CBA). The format is cell-based. As to conditions: Jurkat cell line over-expressing human PD-1; PE-labeled PD-L1-Ig 20 nM final; read-out: Jurkat hPD1-PDL1 IC50. The gist of the method:
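First, compound is added to PD-1-expressing Jurkat cells in serum-containing DMEM and left 2 h at 37° C. Next, PE-conjugated PD-L1-Ig is introduced at 20 nM final concentration for 1 hour. Finally, cells are fixed in 4% paraformaldehyde with Hoechst 33342, washed and imaged.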
Take `Cc1cccc(C[C@@H]2NC(=O)[C@H](CC(=O)O)NC(=O)[C@H](Cc3ccc(OCC(=O)O)cc3)NC(=O)[C@H](CCCNC(=N)N)NC(=O)CSC[C@@H](C(=O)N[C@@H](CCN)C(=O)NCCCCCCCCCCC(=O)O)NC(=O)[C@H](CCO)NC(=O)[C@H](C(C)C)NC(=O)[C@H](CC3CCCCC3)NC(=O)[C@H](CCN)NC(=O)[C@@H](CC(C)C)NC(=O)[C@H](CCCN)NC(=O)[C@H](Cc3ccc(OCC(=O)O)cc3)NC(=O)[C@H](Cc3ccc(-c4ccccc4)cc3)NC(=O)[C@H](Cc3ccc(OCC(=O)O)cc3)NC2=O)c1` [Compound 2094] ({CH2CO}-RY(Carboxymethyl)D[Phe(3-Me)]Y(Carboxymethyl)[Bip]Y(Carboxymethyl)[Orn][dL][Dab][Cha]V[hSer]C[Dab][Aun]-OH; thioether N-14): the 50% inhibitory concentration (IC50) came to 0.0066 µM. Consider `Cc1cccc(C[C@@H]2NC(=O)[C@H](CC(=O)O)NC(=O)[C@H](Cc3ccc(OCC(=O)O)cc3)NC(=O)[C@H](CCCNC(=N)N)NC(=O)CSC[C@@H](C(=O)N[C@@H](CCN)C(=O)NCCCCCCCCCCC(=O)O)NC(=O)[C@H](CCO)NC(=O)[C@H](C(C)C)NC(=O)[C@H](CC3CCCCC3)NC(=O)[C@H](CCN)NC(=O)[C@@H](CC(C)C)NC(=O)[C@H](CCCN)NC(=O)[C@H](Cc3ccc(O)cc3)NC(=O)[C@H](Cc3ccc(-c4ccccc4)cc3)NC(=O)[C@H](Cc3ccc(OCC(=O)O)cc3)NC2=O)c1` [Compound 2095] ({CH2CO}-RY(Carboxymethyl)D[Phe(3-Me)]Y(Carboxymethyl)[Bip]Y[Orn][dL][Dab][Cha]V[hSer]C[Dab][Aun]-OH; thioether N-14), for which the IC50 is 0.0095 µM. For `Cc1cc(C[C@@H]2NC(=O)[C@H](CC(=O)O)NC(=O)[C@H](Cc3ccc(OCC(=O)O)cc3)NC(=O)[C@H](CN)NC(=O)CSC[C@@H](C(=O)N[C@@H](CCN)C(=O)NCCCCCCCCCCC(=O)O)NC(=O)[C@H](CCO)NC(=O)[C@H](C(C)C)NC(=O)[C@H](CC3CCCCC3)NC(=O)[C@H](CCN)NC(=O)[C@@H](CC(C)C)NC(=O)[C@H](CCCN)NC(=O)[C@H](Cc3ccc(OCC(=O)O)cc3)NC(=O)[C@H](Cc3ccc(-c4ccccc4)cc3)NC(=O)[C@H](C(C)C)NC2=O)ccc1O` [Compound 2096] ({CH2CO}-[Dap]Y(Carboxymethyl)D[Tyr(3-Me)]V[Bip]Y(Carboxymethyl)[Orn][dL][Dab][Cha]V[hSer]C[Dab][Aun]-OH; thioether N-14), the IC50 was 0.0365 µM. `Cc1cccc(C[C@@H]2NC(=O)[C@H](CC(=O)O)NC(=O)[C@H](Cc3ccc(OCC(=O)O)cc3)NC(=O)[C@H](CN)NC(=O)CSC[C@@H](C(=O)N[C@@H](CCN)C(=O)NCCCCCCCCCCC(=O)O)NC(=O)[C@@H](CO)NC(=O)[C@H](C(C)C)NC(=O)[C@H](CC3CCCCC3)NC(=O)[C@H](CCN)NC(=O)[C@@H](CC(C)C)NC(=O)[C@H](CCCN)NC(=O)[C@H](Cc3ccc(OCC(=O)O)cc3)NC(=O)[C@H](Cc3ccc(-c4ccccc4)cc3)NC(=O)[C@H](C(C)C)NC2=O)c1` [Compound 2097] ({CH2CO}-[Dap]Y(Carboxymethyl)D[Phe(3-Me)]V[Bip]Y(Carboxymethyl)[Orn][dL][Dab][Cha]V[dS]C[Dab][Aun]-OH; thioether N-14): the concentration for half-maximal inhibition (IC50) is 0.0388 µM. In the case of `Cc1cccc(C[C@@H]2NC(=O)[C@H](CC(=O)O)NC(=O)[C@H](Cc3ccc(OCC(=O)O)cc3)NC(=O)[C@H](CN)NC(=O)CSC[C@@H](C(=O)N[C@@H](CCN)C(=O)NCCCCCCCCCCC(=O)O)NC(=O)C(CO)NC(=O)[C@H](C(C)C)NC(=O)[C@H](CC3CCCCC3)NC(=O)[C@H](CCN)NC(=O)[C@@H](CC(C)C)NC(=O)[C@H](CCCN)NC(=O)[C@H](Cc3ccc(O)cc3)NC(=O)[C@H](Cc3ccc(-c4ccccc4)cc3)NC(=O)[C@H](C(C)C)NC2=O)c1` (stereo partly drawn) [Compound 2098] ({CH2CO}-[Dap]Y(Carboxymethyl)D[Phe(3-Me)]V[Bip]Y[Orn][dL][Dab][Cha]V[ξS]C[Dab][Aun]-OH; thioether N-14) it was 0.0534 µM; in that of `Cc1cccc(C[C@@H]2NC(=O)[C@H](CC(=O)O)NC(=O)[C@H](Cc3ccc(OCC(=O)O)cc3)NC(=O)[C@H](CN)NC(=O)CSC[C@@H](C(=O)N[C@@H](CCN)C(=O)NCCCCCCCCCCC(=O)O)NC(=O)[C@H](CCO)NC(=O)[C@H](C(C)C)NC(=O)[C@H](CC3CCCCC3)NC(=O)[C@H](CCN)NC(=O)[C@@H](CC(C)C)NC(=O)[C@H](CCCN)NC(=O)[C@H](Cc3ccc(OCC(=O)O)cc3)NC(=O)[C@H](Cc3ccc(-c4ccccc4)cc3)NC(=O)[C@H](C(C)C)NC2=O)c1` [Compound 2099] ({CH2CO}-[Dap]Y(Carboxymethyl)D[Phe(3-Me)]V[Bip]Y(Carboxymethyl)[Orn][dL][Dab][Cha]V[hSer]C[Dab][Aun]-OH; thioether N-14), 0.018 µM; in that of `Cc1cccc(C[C@@H]2NC(=O)[C@H](CC(=O)O)NC(=O)[C@H](Cc3ccc(OCC(=O)O)cc3)NC(=O)[C@H](CN)NC(=O)CSC[C@@H](C(=O)N[C@@H](CCN)C(=O)NCCCCCCCCCCC(=O)O)NC(=O)[C@H](CCO)NC(=O)[C@H](C(C)C)NC(=O)[C@H](CC3CCCCC3)NC(=O)[C@H](CCN)NC(=O)[C@@H](CC(C)C)NC(=O)[C@H](CCCN)NC(=O)[C@H](Cc3ccc(OCC(=O)O)cc3)NC(=O)[C@H](Cc3ccc(-c4ccccc4)cc3)NC(=O)[C@H](Cc3ccc(O)cc3)NC2=O)c1` [Compound 2100] ({CH2CO}-[Dap]Y(Carboxymethyl)D[Phe(3-Me)]Y[Bip]Y(Carboxymethyl)[Orn][dL][Dab][Cha]V[hSer]C[Dab][Aun]-OH; thioether N-14), 0.0139 µM. `Cc1cccc(C[C@@H]2NC(=O)[C@H](CC(=O)O)NC(=O)[C@H](Cc3ccc(OCC(=O)O)cc3)NC(=O)[C@H](CN)NC(=O)CSC[C@@H](C(=O)N[C@@H](CCN)C(=O)NCCCCCCCCCCC(=O)O)NC(=O)[C@H](CCO)NC(=O)[C@H](C(C)C)NC(=O)[C@H](CC3CCCCC3)NC(=O)[C@H](CCN)NC(=O)[C@@H](CC(C)C)NC(=O)[C@H](CCCN)NC(=O)[C@H](Cc3ccc(OCC(=O)O)cc3)NC(=O)[C@H](Cc3ccc(-c4ccccc4)cc3)NC(=O)[C@H](Cc3ccc(OCC(=O)O)cc3)NC2=O)c1` [Compound 2101] ({CH2CO}-[Dap]Y(Carboxymethyl)D[Phe(3-Me)]Y(Carboxymethyl)[Bip]Y(Carboxymethyl)[Orn][dL][Dab][Cha]V[hSer]C[Dab][Aun]-OH; thioether N-14): the IC50 is 0.0162 µM. In the case of `Cc1cccc(C[C@@H]2NC(=O)[C@H](CC(=O)O)NC(=O)[C@H](Cc3ccc(OCC(=O)O)cc3)NC(=O)[C@H](CN)NC(=O)CSC[C@@H](C(=O)N[C@@H](CCN)C(=O)NCCCCCCCCCCC(=O)O)NC(=O)[C@H](CCO)NC(=O)[C@H](C(C)C)NC(=O)[C@H](CC3CCCCC3)NC(=O)[C@H](CCN)NC(=O)[C@@H](CC(C)C)NC(=O)[C@H](CCCN)NC(=O)[C@H](Cc3ccc(O)cc3)NC(=O)[C@H](Cc3ccc(-c4ccccc4)cc3)NC(=O)[C@H](Cc3ccc(OCC(=O)O)cc3)NC2=O)c1` [Compound 2102] ({CH2CO}-[Dap]Y(Carboxymethyl)D[Phe(3-Me)]Y(Carboxymethyl)[Bip]Y[Orn][dL][Dab][Cha]V[hSer]C[Dab][Aun]-OH; thioether N-14) it was 0.0291 µM; in that of `CC(C)C[C@H]1NC(=O)[C@H](CCCN)NC(=O)[C@H](Cc2ccc(O)cc2)NC(=O)[C@H](Cc2ccc(-c3ccccc3)cc2)NC(=O)[C@H](Cc2ccc(O)cc2)NC(=O)[C@H](Cc2ccc(O)c(F)c2)NC(=O)[C@H](CC(=O)O)NC(=O)[C@H](Cc2ccc(OCC(=O)O)cc2)NC(=O)[C@H](CCCNC(=N)N)NC(=O)CSC[C@@H](C(=O)N[C@@H](CCN)C(=O)NCCCCCCCCCCC(=O)O)NC(=O)[C@H]([C@@H](C)O)NC(=O)[C@H](C(C)C)NC(=O)[C@H](CC2CCCCC2)NC(=O)[C@H](CCN)NC1=O` [Compound 2103] ({CH2CO}-RY(Carboxymethyl)D[Tyr(3-F)]Y[Bip]Y[Orn][dL][Dab][Cha]VTC[Dab][Aun]-OH; thioether N-14), 0.0699 µM. As for `Cc1cc(C[C@@H]2NC(=O)[C@H](CC(=O)O)NC(=O)[C@H](Cc3ccc(OCC(=O)O)cc3)NC(=O)[C@H](CCCNC(=N)N)NC(=O)CSC[C@@H](C(=O)N[C@@H](CCN)C(=O)NCCCCCCCCCCC(=O)O)NC(=O)[C@H]([C@@H](C)O)NC(=O)[C@H](C(C)C)NC(=O)[C@H](CC3CCCCC3)NC(=O)[C@H](CCN)NC(=O)[C@@H](CC(C)C)NC(=O)[C@H](CCCN)NC(=O)[C@H](Cc3ccc(O)cc3)NC(=O)[C@H](Cc3ccc(-c4ccccc4)cc3)NC(=O)[C@H](Cc3ccc(O)cc3)NC2=O)ccc1O` [Compound 2104] ({CH2CO}-RY(Carboxymethyl)D[Tyr(3-Me)]Y[Bip]Y[Orn][dL][Dab][Cha]VTC[Dab][Aun]-OH; thioether N-14), the IC50 was determined as 0.0223 µM. As for `CC(C)C[C@H]1NC(=O)[C@H](CCCN)NC(=O)[C@H](Cc2ccc(OCC(=O)O)cc2)NC(=O)[C@H](Cc2ccc(-c3ccccc3)cc2)NC(=O)[C@H](Cc2ccc(O)cc2)NC(=O)[C@H](Cc2ccc(O)c(F)c2)NC(=O)[C@H](CC(=O)O)NC(=O)[C@H](Cc2ccc(OCC(=O)O)cc2)NC(=O)[C@H](CCCNC(=N)N)NC(=O)CSC[C@@H](C(=O)N[C@@H](CCN)C(=O)NCCCCCCCCCCC(=O)O)NC(=O)[C@H]([C@@H](C)O)NC(=O)[C@H](C(C)C)NC(=O)[C@H](CC2CCCCC2)NC(=O)[C@H](CCN)NC1=O` [Compound 2105] ({CH2CO}-RY(Carboxymethyl)D[Tyr(3-F)]Y[Bip]Y(Carboxymethyl)[Orn][dL][Dab][Cha]VTC[Dab][Aun]-OH; thioether N-14), the IC50 is 0.113 µM. Consider `Cc1cc(C[C@@H]2NC(=O)[C@H](CC(=O)O)NC(=O)[C@H](Cc3ccc(OCC(=O)O)cc3)NC(=O)[C@H](CCCNC(=N)N)NC(=O)CSC[C@@H](C(=O)N[C@@H](CCN)C(=O)NCCCCCCCCCCC(=O)O)NC(=O)[C@H]([C@@H](C)O)NC(=O)[C@H](C(C)C)NC(=O)[C@H](CC3CCCCC3)NC(=O)[C@H](CCN)NC(=O)[C@@H](CC(C)C)NC(=O)[C@H](CCCN)NC(=O)[C@H](Cc3ccc(OCC(=O)O)cc3)NC(=O)[C@H](Cc3ccc(-c4ccccc4)cc3)NC(=O)[C@H](Cc3ccc(O)cc3)NC2=O)ccc1O` [Compound 2106] ({CH2CO}-RY(Carboxymethyl)D[Tyr(3-Me)]Y[Bip]Y(Carboxymethyl)[Orn][dL][Dab][Cha]VTC[Dab][Aun]-OH; thioether N-14), for which the 50% inhibitory concentration (IC50) worked out at 0.0159 µM.

Broadly, the IC50 is the midpoint of a concentration-inhibition curve.
